A short description of this data set: Water solubility of the isolated powder (observation after work-up). Type of data set: physicochemical. The settings on record: isolated lemon-yellow powder. As for the experimental part:
To a premixed solution of 6.0 g ethylene diamine in 30 ml ethanol was added 30.8 g of 5-benzoyl-4-hydroxy-2-methoxy benzenesulfonic acid and stirred well until a solution was formed. The mixture was heated to 130° C. for 16 hours and then cooled to 70° C. The ethanol residue was flashed off in a vacuum oven at 70° C.
To a premixed solution of 11.6 g hexamethylene diamine in 40 g ethanol was added 30.8 g of 5-benzoyl-4-hydroxy-2-methoxy benzenesulfonic acid and stirred well until a solution was formed. The mixture was heated to 130° C. for 16 hours and then cooled to 70° C. The ethanol residue was flashed off in a vacuum oven at 70° C.
An amount of 7.4 g propylene diamine, 30.8 g of 5-benzoyl-4-hydroxy-2-methoxy benzenesulfonic acid, and 30 ml of 1:1 ethanol-water mixture was stirred well until a clear solution was obtained. […] The ethanol residue was flashed off in a vacuum oven at 70° C.

As for “2-hydroxy-4-methoxy-5-(N-3-aminopropyl)sulfonamido-4′-methylbenzophenone [Example 5]”, the solubility in water entry is listed as “insoluble in water”.
Take “2-hydroxy-4-methoxy-5-(N-6-aminohexyl) sulfonamido-4′-methylbenzophenone [Example 4]”: the solubility in water entry is “insoluble in water”.

Values taken from patent US10351523B2, “UV-absorbing compounds with at least one reactive hydrogen” (ISP INVESTMENTS LLC, priority 2013, dated 2019).
